# According to publication PMC8557866, “Novel Small Molecule Growth Inhibitor Affecting Bacterial Outer Membrane Reduces Extraintestinal Pathogenic Escherichia coli (ExPEC) Infection in Avian Model” (Microbiology Spectrum, 2021):
# Where two headings read alike, the source gives them in different places.
# Key:
# [1] = test system: APEC serotype O78
# Experimental: The efficacy of GIs was assessed using commercial broiler chickens (n = 6/group). […] GI compounds (ChemBridge, San Diego, CA) dissolved in dimethyl sulfoxide (DMSO) were administered orally using a syringe, twice a day, from day 4 (1 day before APEC infection) to day 8 (3 days postinfection [dpi]). The dose of each GI is described in Table S1. […] Chickens that were infected and vehicle-treated (positive control [PC]) and noninfected and nontreated (negative control [NC]) were included as controls. On day 5, chickens were infected subcutaneously (s.c.) with rifampin-resistant (Rif^r) APEC serotype O78 ([18]) (1 × 10^7 CFU/chicken). […] To prepare the APEC inoculum for infection, Rif^r APEC O78 (50 μg/ml rifampin) was grown to logarithmic phase in LB medium, washed twice with phosphate-buffered saline (PBS), and adjusted to an optical density at 600 nm (OD600) of 0.1 (5 × 10^7 CFU/ml). The clinical signs and mortality were recorded until 7 dpi. Chickens that died during this period were necropsied on the same day, lesions in internal organs (liver, heart, lung, and air sacs) were scored as described previously ([63], [71]), and the APEC loads were quantified in internal organs (liver, heart, lung, and kidney) by plating the tissue homogenates on MacConkey agar plates containing 50 μg/ml rifampin ([18]). At 7 dpi (day 12), all live birds were euthanized, lesions were scored, and the APEC loads in internal organs were quantified as described above. The body weight of chickens was measured before GI treatment (day 3) and at the day of necropsy (day 12).
# [2] = test system: APEC O78; conditions: for Mortality reduction compared to PC group: 7 days, PC mortality 60%; for Cumulative lesion score: PC 8.8; for Survival of chickens: P < 0.05, log-rank test
# Experimental: Prior to selection of these doses, we conducted a preliminary study using 20-mg/liter, 200-mg/liter, and 500-mg/liter doses (doses similar to those of antibiotics currently used in the poultry industry). […] The experiment was conducted using commercial broiler chickens (n = 11/group) as described above following procedures described in Fig. S1A. […] The amount of drinking water was adjusted daily based on the age and requirement of chickens (https://www.thepoultrysite.com/articles/broiler-water-consumption). The clinical signs and mortality, lesion scores, and APEC loads were determined as described above.
# [3] = Quantification of residue in chicken tissues (LC-MS); type: in vivo, chickens
# Description: Chickens (n = 5/time point) from an experimental set-up as described above for the floor trial were sacrificed at 2 days (day 13; 2 DPLT), 5 days (day 16; 5 DPLT), and 31 days (day 42; 31 DPLT) post-last treatment. […] Tissue samples from chickens treated with SDM were used for comparison. […] Details of the methods are included in the supplemental material.
# [4] = test system: APEC O78; parameters: method as in PMID 30333507; conditions: cited from earlier work
# [5] = test system: eukaryotic cells and wax moth larva; parameters: method as in PMID 30333507; conditions: cited from earlier work
# [6] = 20 mg/L in drinking water, vs PC
# [7] = 20 mg/liter in drinking water, vs PC
# [8] = 40 mg/L in drinking water, vs PC
# [9] = 40 mg/liter in drinking water, vs PC
# [10] = 60 mg/L in drinking water, vs PC
# [11] = 60 mg/liter in drinking water, vs PC
smiles,measurement,setting,value
COc1ccc(CNCc2cccc(C(F)(F)F)c2)cc1OCC(O)CN1CCCC1 (stereo not shown) [GI-7],"Mean APEC load, Heart","[1]; efficacy trial, oral",2.7 Log CFU/g tissues
same,"Mean APEC load, Kidney","[1]; efficacy trial, oral",2.3 Log CFU/g tissues
same,"Mean APEC load, Liver","[1]; efficacy trial, oral",2.1 Log CFU/g tissues
same,"Mean APEC load, Lung","[1]; efficacy trial, oral",2.7 Log CFU/g tissues
same,Mean lesion score in Air sacs,"[1]; efficacy trial, oral",0.7
same,Mean lesion score in Heart,"[1]; efficacy trial, oral",0.8
same,Mean lesion score in Liver,"[1]; efficacy trial, oral",0.7
same,Mean lesion score in Lung,"[1]; efficacy trial, oral",0.2
same,Survival of chickens,"[1]; efficacy trial, oral, P ≤ 0.1, log rank test",prolonged the survival
same,Cumulative lesion score,"[1]; efficacy trial, oral, PC 6.2",2.3
same,Mortality reduction compared to PC group,"[1]; efficacy trial, oral, PC mortality 58.3%",41.7%
same,"% reduction in severity, Air sacs lesions","[1]; efficacy trial, oral, vs PC",52.9%
same,"% reduction in severity, Heart lesions","[1]; efficacy trial, oral, vs PC",60%
same,"% reduction in severity, Liver lesions","[1]; efficacy trial, oral, vs PC",60%
same,"% reduction in severity, Lung lesions","[1]; efficacy trial, oral, vs PC",83.3%
same,"log reduction in APEC load, Heart","[1]; efficacy trial, oral, vs PC",2.3 Log CFU/g tissues
same,"log reduction in APEC load, Kidney","[1]; efficacy trial, oral, vs PC",3.2 Log CFU/g tissues
same,"log reduction in APEC load, Liver","[1]; efficacy trial, oral, vs PC",2.5 Log CFU/g tissues
same,"log reduction in APEC load, Lung","[1]; efficacy trial, oral, vs PC",2.4 Log CFU/g tissues
same,BWG (body weight gain),[1]; in vivo,261.3±20.4
same,"Mean APEC load, Heart",[2]; 20 mg/L in drinking water,6.7 Log CFU/g tissues
same,"Mean APEC load, Kidney",[2]; 20 mg/L in drinking water,5.9 Log CFU/g tissues
same,"Mean APEC load, Liver",[2]; 20 mg/L in drinking water,6.0 Log CFU/g tissues
same,"Mean APEC load, Lung",[2]; 20 mg/L in drinking water,6.3 Log CFU/g tissues
same,"log reduction in APEC load, Heart",[2]; [6],-0.2 Log CFU/g tissues
same,"log reduction in APEC load, Kidney",[2]; [6],0.2 Log CFU/g tissues
same,"log reduction in APEC load, Liver",[2]; [6],-0.1 Log CFU/g tissues
same,"log reduction in APEC load, Lung",[2]; [6],-0.4 Log CFU/g tissues
same,Mean lesion score in Air sacs,[2]; 20 mg/liter in drinking water,2.3
same,Mean lesion score in Heart,[2]; 20 mg/liter in drinking water,2.7
same,Mean lesion score in Liver,[2]; 20 mg/liter in drinking water,2
same,Mean lesion score in Lung,[2]; 20 mg/liter in drinking water,1.8
same,Mortality reduction compared to PC group,[2]; 20 mg/liter in drinking water,10%
same,Cumulative lesion score,[2]; 20 mg/liter in drinking water,8.8
same,"% reduction in severity, Air sacs lesions",[2]; [7],1.4%
same,"% reduction in severity, Heart lesions",[2]; [7],−9.5%
same,"% reduction in severity, Liver lesions",[2]; [7],0%
same,"% reduction in severity, Lung lesions",[2]; [7],10%
same,"Mean APEC load, Heart",[2]; 40 mg/L in drinking water,4.4 Log CFU/g tissues
same,"Mean APEC load, Kidney",[2]; 40 mg/L in drinking water,4.2 Log CFU/g tissues
same,"Mean APEC load, Liver",[2]; 40 mg/L in drinking water,3.9 Log CFU/g tissues
same,"Mean APEC load, Lung",[2]; 40 mg/L in drinking water,4.0 Log CFU/g tissues
same,"log reduction in APEC load, Heart",[2]; [8],2.0 Log CFU/g tissues
same,"log reduction in APEC load, Kidney",[2]; [8],1.9 Log CFU/g tissues
same,"log reduction in APEC load, Liver",[2]; [8],2.0 Log CFU/g tissues
same,"log reduction in APEC load, Lung",[2]; [8],2.0 Log CFU/g tissues
same,Reduction of severity of APEC lesions in internal organs,"[2]; 40 mg/liter and 60 mg/liter in drinking water, vs PC",up to 36.3%
same,Mean lesion score in Heart,[2]; 40 mg/liter in drinking water,2.6
same,Mean lesion score in Liver,[2]; 40 mg/liter in drinking water,2
same,Mortality reduction compared to PC group,[2]; 40 mg/liter in drinking water,50%
same,Survival of chickens,[2]; 40 mg/liter in drinking water,prolonged the survival
same,Cumulative lesion score,[2]; 40 mg/liter in drinking water,7.7
same,"% reduction in severity, Heart lesions",[2]; [9],−5.4%
same,"% reduction in severity, Liver lesions",[2]; [9],0%
same,"% reduction in severity, Lung lesions",[2]; [9],30%
same,"Mean APEC load, Heart",[2]; 60 mg/L in drinking water,4.0 Log CFU/g tissues
same,"Mean APEC load, Kidney",[2]; 60 mg/L in drinking water,3.6 Log CFU/g tissues
same,"Mean APEC load, Liver",[2]; 60 mg/L in drinking water,3.5 Log CFU/g tissues
same,"Mean APEC load, Lung",[2]; 60 mg/L in drinking water,4.4 Log CFU/g tissues
same,"log reduction in APEC load, Heart",[2]; [10],2.4 Log CFU/g tissues
same,"log reduction in APEC load, Kidney",[2]; [10],2.5 Log CFU/g tissues
same,"log reduction in APEC load, Liver",[2]; [10],2.4 Log CFU/g tissues
same,"log reduction in APEC load, Lung",[2]; [10],1.6 Log CFU/g tissues
same,Mean lesion score in Heart,[2]; 60 mg/liter in drinking water,2.1
same,Mean lesion score in Lung,[2]; 60 mg/liter in drinking water,1.4
same,Mortality reduction compared to PC group,[2]; 60 mg/liter in drinking water,50.9%
same,Survival of chickens,[2]; 60 mg/liter in drinking water,prolonged the survival
same,Cumulative lesion score,[2]; 60 mg/liter in drinking water,6.6
same,"% reduction in severity, Air sacs lesions",[2]; [11],33.8%
same,"% reduction in severity, Heart lesions",[2]; [11],15.2%
same,"% reduction in severity, Liver lesions",[2]; [11],13.6%
same,"% reduction in severity, Lung lesions",[2]; [11],36.3%
same,Anti-APEC effect compared to treatment at 60 mg/liter,"[2]; 80 mg/liter, follow-up study, data not shown",did not result in a better anti-APEC effect
same,Residue concentration in muscle,[3]; 2 DPLT,0.04 ± 0.03 ppm/g tissue
same,Residue level in kidney,[3]; 2 DPLT,0.7 ± 0.6 ppm/g tissue
same,Residue level in liver,[3]; 2 DPLT,0.5 ± 0.4 ppm/g tissue
same,Residue concentration in muscle,[3]; 5 DPLT,0.01 ± 0.01 ppm/g tissue
same,Residue level in kidney,[3]; 5 DPLT,0.3 ± 0.3 ppm/g tissue
same,Residue level in liver,[3]; 5 DPLT,0.2 ± 0.2 ppm/g tissue
same,Residue concentration in muscle,[3]; 31 DPLT,0.0 ± 0.0 ppm/g tissue
same,Residue level in kidney,[3]; 31 DPLT,0.0 ± 0.0 ppm/g tissue
same,Residue level in liver,[3]; 31 DPLT,0.0 ± 0.0 ppm/g tissue
same,Residues in tissues relative to FDA limits for antibiotics,[3]; in vivo,below the limits permitted by the Food and Drug Administration
same,MIC,[4],25 µM
same,Toxicity to eukaryotic cells and wax moth larva,[5],minimally toxic
